Reference: patent publication US4111955A, “N-Trihalomethanesulfenyl carbamoyloximino di-sulfur heterocyclic compounds” (priority 1976, dated 1978)
In brackets after ≈: the same amount, converted by molar mass.

What was measured:
[1] = tested on: house flies (Musca domestica, L.); assay: Fly Bait Test; type: in vivo; parameters: key to pesticidal activity rating, Housefly: A: excellent control; B: partial control; C: no control
Procedure: Four to 6 day old adult house flies (Musca domestica, L.), reared according to the specifications of the Chemical Specialities Manufacturing Association (Blue Book, McNair-Dorland Co., N.Y. 1954; pages 243-244, 261) under controlled conditions of 80°±5° F. and 50±5 percent relative humidity, were the test insects. The flies were immobilized by anesthetizing with carbon dioxide and twenty five immobilized individuals, males and females, were transferred to a cage consisting of a standard food strainer about 5 inches in diameter which was inverted over a wrapping-paper-covered surface. The test compounds were formulated by diluting the stock suspension with a 10 percent (by weight) sugar solution to give a suspension containing 500 parts of test compound per million parts of final formulation, by weight. Ten milliliters of the test formulation were added to a souffle cup containing a 1-inch square of an absorbent cotton pad. This bait cup was introduced and centered on the blotting paper under the food strainer prior to admitting the anesthetized flies. The caged flies were allowed to feed on the bait for 24 hours, at a temperature of 80°±5° F. and the relative humidity of 50±5 percent.
(§1) In these tests the pesticidal activity of the compounds against aphid, mite, Southern Armyworm, Bean Beetle and House fly was rated as follows:
(§2) The LD50 values shown in the above Table II were determined by testing the compositions over an appropriate concentration range obtained by serial dilution of the stock suspension with water. The percent kill was plotted on log-probit graph paper versus parts per million concentration, and the LD50 read from an eye-fitted line drawn through the resultant points.

[2] = tested on: two-spotted mite (Tetranychus urticae Koch); assay: Mite Foliage Spray Test; type: in vivo; parameters: key to pesticidal activity rating, Mite: A: excellent control; B: partial control; C: no control
Procedure: (§3) Adults and nymphal stages of the two-spotted mite (Tetranychus urticae Koch), reared on Tendergreen bean plants at 80±5 percent relative humidity, were the test organisms. Infested leaves from a stock culture were placed on the primary leaves of two bean plants 6 to 8 inches in height, growing in a 21/2 inch clay pot. 150-200 Mites, a sufficient number for testing, transferred from the excised leaves to the fresh plants in a period of 24 hours. Following the 24 hour transfer period, the excised leaves were removed from the infested plants. The test compounds were formulated by diluting the stock suspension with water to give a suspension containing 500 parts of test compound per million parts of final formulation. The potted plants (one pot per compound) were placed on a revolving turntable and sprayed with 100-110 milliliters of test compound formulation by use of a DeVilbiss spray gun set at 40 psig. air pressure. This application, which lasted 25 seconds, was sufficient to wet the plants to run-off. As a control, 100-110 milliliters of a water solution containing acetone and emulsifier in the same concentrations as the test compound formulation, but containing no test compound, were also sprayed on infested plants. The sprayed plants were held at 80±5 percent relative humidity for 6 days, after which a mortality count of motile forms was made. Microscopic examination for motile forms was made on the leaves of the test plants. Any individual which was capable of locomotion upon prodding was considered living.
as §1, §2

[3] = tested on: southern armyworm (Prodenia eridania, (Cram.)); assay: Southern Armyworm Leaf Spray Test; type: in vivo; parameters: key to pesticidal activity rating, Armyworm: A: excellent control; B: partial control; C: no control
Procedure: Larvae of the southern armyworm (Prodenia eridania, (Cram.)), reared on Tendergreen bean plants at a temperature of 80°±5° F. and a relative humidity of 50±5 percent, constituted the test insects.
The test compounds were formulated by diluting the stock suspension with water to give a suspension containing 500 parts of test compound per million parts of final formulation. Potted Tendergreen bean plants of standard height and age were placed on a revolving turntable and sprayed with 100-110 milliliters of test compound formulation by use of a DeVilbiss spray gun set at 10 psig air pressure. This application, which lasted 25 seconds, was sufficient to wet plants to run-off. As a control, 100-110 milliliters of a water-acetone-emulsifier solution containing no test compound were also sprayed on infested plants. When dry, the paired leaves were separated and each one was placed in a 9 centimeter Petri dish lined with moistened filter paper. Five randomly selected larvae were introduced into each dish and the dishes were closed. The closed dishes were labeled and held at 80°-85° F. for 3 days. Although the larvae could easily consume the whole leaf within 24 hours, no more food was added. Larvae which were unable to move the length of the body, even upon stimulation by prodding, were considered dead. Percent mortality was recorded for various concentration levels.
as §1, §2

[4] = tested on: mites; assay: Systemic miticidal activity (soil drench of infested bean plants); type: in vivo, Tetranychus urticae Koch; settings: Tetranychus urticae; systemic, soil drench, value in parentheses, Table II; read-out: Insect Toxicity, LD50, Mite, systemic activity
Procedure: as §3, §2
Systemic treatments were made by drenching 20 milliliters of the test compound formulation into the soil around the roots of bean plants growing in 21/2 inch clay pots. […]

[5] = tested on: Mexican bean beetle (Epilachna varivestis, Muls.); assay: Mexican Bean Beetle Leaf Spray Test; type: in vivo; parameters: key to pesticidal activity rating, Bean beetle: A: excellent control; B: partial control; C: no control; settings: leaf spray
Procedure: Fourth instar larvae of the Mexican bean beetle (Epilachna varivestis, Muls.), reared on Tendergreen bean plants at a temperature of 80°±5° F. and 50±5 percent relative humidity, were the test insects.
The test compounds were formulated by diluting the stock suspension with water to give a suspension containing 500 parts of test compound per million parts of final formulation. Potted Tendergreen bean plants of standard height and age were placed on a revolving turntable and sprayed with 100-110 milliliters of test compound formulation by use of a DeVilbiss spray gun set at 10 psig air pressure. This application, which lasted 25 seconds, was sufficient to wet plants to run-off. As a control, 100-110 milliliters of a water-acetone-emulsifier solution containing no test compound were also sprayed on infested plants. When dry, the paired leaves were separated and each was placed in a 9 centimeter Petri dish lined with moistened filter paper. Five randomly selected larvae were introduced into each dish, and the dishes were closed. The closed dishes were labeled and held at a temperature of 80°±5° F. for 3 days. Although the larvae could easily consume the leaf within 24 to 48 hours, no more food was added. Larvae which were unable to move the length of the body, even upon stimulation, were considered dead.
as §1, §2

[6] = Peroral toxicity to mammals (rat); type: in vivo; settings: in vivo, po; rat, peroral, Table II; read-out: Rat P.O. LD50
Procedure: Certain of these compositions were also evaluated to determine their peroral toxicity to mammals. The animal selected for this experiment was the rat. The test results obtained are expressed in terms of the number of milligrams of composition per kilogram of weight of the animal required to achieve a mortality rate of 50 percent (LD50).

[7] = tested on: bean aphid (Aphis fabae Scop.); assay: Bean Aphid Foliage Spray Test; type: in vivo; parameters: key to pesticidal activity rating, Aphid: A: excellent control; B: partial control; C: no control
Procedure: Adults and nymphal stages of the bean aphid (Aphis fabae Scop.) reared on potted dwarf nasturtium plants at 65°-70° F. and 50-70 percent relative humidity, constituted the test insects. For testing purposes, the number of aphids per pot was standardized to 100-150 by trimming plants containing excess aphids.
The test compounds were formulated by diluting the stock suspension with water to give a suspension containing 500 parts of test compound per million parts of final formulation.
The potted plants (one pot per compound tested) infested with 100-150 aphids, were placed on a revolving turntable and sprayed with 100-110 milliliters of test compound formulation by use of a DeVilbiss spray gun set at 40 psig. air pressure. This application, which lasted 25 seconds, was sufficient to wet the plants to run-off. As a control, 100-110 milliliters of a water-acetone-emulsifier solution containing no test compound were also sprayed on infested plants. After spraying, the pots were placed on their sides on a sheet of white standard mimeograph paper which had been previously ruled to facilitate counting. Temperature and humidity in the test room during the 24 hour holding period were 65°-70° F. and 50-70 percent, respectively. Aphids which fell onto the paper and were unable to remain standing after being uprighted were considered dead. Aphids remaining on the plants were observed closely for movement and those which were unable to move the length of the body upon stimulation by prodding were considered dead. Percent mortality was recorded for various concentration levels.
as §1, §2

For CNC(=O)ON=C1CSCCS1 [drawing 3 --NHCH3, reference compound], the “pesticidal activity rating, Housefly” value ([1]; 500 parts per million, 24 hours) was “A”, the LC50 ([1]; Musca domestica, 24 h, Table II, read-out: Insect Toxicity, LD50, House fly) was 1 µg/mL (≈ 4.85 µM) and the “pesticidal activity rating, Mite” value ([2]; 500 parts per million, 6 days) was “A”. The LC50 ([2]; Tetranychus urticae, foliar, Table II, read-out: Insect Toxicity, LD50, Mite) was 6 µg/mL (≈ 29.1 µM), the “pesticidal activity rating, Armyworm” value ([3]; 500 parts per million, 3 days) was “A” and the LC50 ([3]; Spodoptera eridania, 72 h, Table II, read-out: Insect Toxicity, LD50, Armyworm) was 53 µg/mL (≈ 257 µM). For the same compound, the LC50 [4] was 12 µg/mL (≈ 58.2 µM), the LC50 ([5]; Epilachna varivestis, 72 h, Table II, read-out: Insect Toxicity, LD50, Mexican Bean beetle) was 52 µg/mL (≈ 252 µM) and the “pesticidal activity rating, Bean beetle” value ([5]; 500 parts per million, 3 days) was “A”. For the same compound, the LD50 [6] was 15 mg/kg, the “pesticidal activity rating, Aphid” value ([7]; 500 parts per million, 24 hour) was “A” and the LC50 ([7]; Aphis fabae, foliar, 24 h, Table II, read-out: Insect Toxicity, LD50, Aphid) was 5 µg/mL (≈ 24.2 µM).
